{"source": "patent US10092537B2", "about": "“Use for PAI-1 inhibitor” (RENASCIENCE CO., LTD., priority 2013, dated 2018)", "key": {"[1]": {"tested_on": "HER2-positive human ovarian cancer cell lines SKOV3", "test": "SKOV3 ovarian cancer subcutaneous tumor, Herceptin and compound c (Experimental Example 18)", "assay_type": "in vivo, BALB/c-nude mice", "settings": "Herceptin 5 mg/kg i.p. once + compound c 10 mg/kg/day oral (day 0-4, day 7-11); 45 days after administration", "protocol": "HER2-positive human ovarian cancer cell lines SKOV3 (5×10^6) were subcutaneously inoculated into BALB/c-nude mice. For better cell engraftment, the mice were intraperitoneally administered 25 μl of anti-Asialo GM1 antibody (Wako Pure Chemical Industries, Ltd., Code No. 014-09801) 2 days and 1 day before the cancer cell inoculation. […] The group to which Herceptin and compound c were administered in combination is referred to as “compound c-combined group”, and the group to which Herceptin and physiological saline were administered in combination is referred to as “compound c-non-combined group.” The group to which only physiological saline was administered without Herceptin is referred to as “placebo group.”"}, "[2]": {"tested_on": "human hematopoietic stem cells", "test": "Transplantation of human CD34+ umbilical cord blood cells into irradiated severely immunocompromised mice (Experimental Example 2)", "assay_type": "in vivo", "settings": "100 mg/kg oral, 6 doses, 7 days after cell transplantation", "protocol": "Severely immunocompromised mice (recipient) were exposed to radiation (2Gy), and two days later, human CD34^+ cells isolated from human umbilical cord blood were transplanted into the mice. Concurrently with the transplantation, compound a was orally administered into the mice as a test compound (dosage: 100 mg/kg), and the compound was further administered for 5 consecutive days; i.e., 6 doses in total (see FIG. 2A). 2 days after the last administration (7 days after the cell transplantation), the bone-marrow cells were collected, and the abundance ratio of human hematopoietic cells was measured with a flow cytometric analyzer, whereas the cKitL concentration (μg/mL) and VEGF concentration (μg/mL) in the plasma were also measured."}, "[3]": {"tested_on": "hematopoietic stem cells", "test": "Bone-marrow transplantation into wild-type mice and tPA-KO-mice (Experimental Example 8 (2))", "assay_type": "in vivo", "settings": "3 weeks after bone-marrow transplantation", "protocol": "Compound a was administered to wild-type mice and tPA-KO-mice (6 mice for each) that underwent bone-marrow transplantation, and 3 weeks after, the mice were measured for the number of bone-marrow mononucleic cells (BM MNC), the frequency and absolute number of Lin-SLAM cells, and the frequency and absolute number of LSK-CD34 negative cells. Physiological saline was administered to a control group, and the same measurement was conducted."}, "[4]": {"tested_on": "hematopoietic stem cells", "test": "Fibrinolytic pathway activation and bone-marrow regeneration after lethal radiation (9Gy) and bone-marrow transplantation, compound a versus recombinant tPA (Experimental Example 7)", "quoted_text": "Within 4 hours, 1.0×10^6 bone-marrow mononucleic cells (BM MNC) were intravenously inoculated into retro-orbital plexus. Concurrently with transplantation, compound a (dosage 100 mg/kg) or recombinant tPA (dosage 100 mg/kg, Eisai Co., Ltd) were administered as a test compound via oral gavage, and the test compound was orally administered for 5 consecutive days (administered group). As a control test, instead of the test compound, physiological saline (vehicle) used for dissolving compound a was orally administered in the same manner (control group).\nBlood was collected 2 and 7 days after bone-marrow transplantation, and the active PAI-1 level (ng/mL), active tissue-type plasminogen activator (active tPA), plasmin level (ng/mL), cKit ligand, and total MMP-9 (Matrix metalloprotein-9) in the plasma were measured."}, "[5]": {"tested_on": "CML cells (32Dp210-GFP cells)", "test": "Chronic myelogenous leukemia model mice, imatinib and compound a (Experimental Example 11)", "assay_type": "in vivo, C3H/HeJ mice", "protocol": "p210(BCR-ABL) gene was inserted into a MIGR1 vector, and GFP cDNA was further incorporated as a reporter gene downstream of the gene (hereinafter, the vector is referred to as “p210-GFP”). p210-GFP was infected with 32D cells (C3H/HeJ mice cell line), and chronic myelogenous leukemia (hereinafter, referred to as “CML”) cells were prepared. 2.5×10^5 of the thus-obtained CML cells (32Dp210(BCR-ABL)-GFP cells, hereinafter, referred to as “32Dp210-GFP cells”) were intravenously administered into the retro-orbital plexus of C3H/HeJ mice. 7 to 10 days after the transplantation, the abundance ratio of GFP cells in the peripheral blood was analyzed, and mice with more than 3% of abundance ratio were used as chronic myelogenous leukemia model mice in the following experiments.\n15 chronic myelogenous leukemia model mice prepared by using the procedure described above were divided into the following 3 groups (each group: n=15), and a test drug was administered to the mice in accordance with the protocol shown in FIG. 15A.\nGroup 1: placebo group (physiological saline was administered via gavage)\nGroup 2: imatinib group (imatinib [150 mg/kg/day] was administered via gavage)\nGroup 3: imatinib+compound a group (imatinib [150 mg/kg/day] and compound a [100 mg/kg/day] were administered via gavage)\n10 days (day 10) after the day on which CML cells were intravenously inoculated (day 0), administration of test drugs to the groups was started. The placebo group and the imatinib group were administered the respective test drugs once a day from day 10 to day 16 (7 doses in total). The imatinib+compound a group was administered imatinib once a day from day 10 to day 16 (7 doses in total), and also administered compound a once a day from day 10 to day 14 (5 doses in total).\nAs described above, 32Dp210-GFP includes GFP as a reporter gene, and thus, the CML cells having 32Dp210-GFP inserted (32Dp210-GFP cells) are GFP-positive. Therefore, using FACS (FACS (BD Biosciences: FACSCalibur), the frequency of CML cells (32Dp210-GFP cells) in mononucleic cells of the bone marrow and spleen was measured and compared between the imatinib group and the imatinib+compound a group."}, "[6]": {"tested_on": "hematopoietic stem cells", "test": "Cell cycle (Ki-67, BrdU) and apoptosis (Annexin V) of bone-marrow cells 1 week after bone-marrow transplantation (Experimental Example 9)", "assay_type": "in vivo, mice", "protocol": "In accordance with Experimental Example 7 (1), bone-marrow transplantation was conducted, and after the transplantation, physiological saline (control group), tPA (tPA-administered group), or compound a (compound a-administered group) was administered.\n1 week after bone-marrow transplantation, the bone marrow was collected, and Ki-67 protein, which is a cell division marker, was immunostained with anti-Ki-67-FITC antibody (BD Bioscience) to analyze the cells in the cell-division cycle by FACSCalibur.\nSubsequently, the number of Ki-67 positive cells in the cells of LSK fraction was examined to confirm that the proliferation of hematopoietic stem cells is promoted by compound a.\nIn addition, to more accurately detect the cells that moved to the S phase, 5-bromo-2-deoxyuridine (BrdU)-FITC (BD Pharmingen) was administered to the control group, tPA group, and compound a-administered group 1 week after bone-marrow transplantation, 3 hours before the collection of bone marrow. 6 mice were used for each group.\nBecause BrdU is a thymine derivative, BrdU, substituting for thymine, is incorporated into genomic DNA or the like during DNA replication. BrdU more specifically reflects the S phase than Ki-67 protein.\n1 week after bone-marrow transplantation, bone marrow was collected from the control group, tPA group, and compound a-administered group (6 mice for each group), and Annexin V, which appears specifically in apoptosis, was detected with anti-Annexin V antibody immunostaining."}, "[7]": {"settings": "2 and 7 days after transplantation, among control, tPA and compound a groups"}, "[8]": {"settings": "tPA group compared with control group, compound a group compared with tPA group"}, "[9]": {"settings": "imatinib 150 mg/kg/day + compound a 100 mg/kg/day"}}, "data": [{"smiles": "O=C(Nc1ccc(Cl)cc1C(=O)O)c1cccc(-c2ccccc2)c1", "note": "[Example 4, 2-[(biphenyl-3-ylcarbonyl)amino]-5-chlorobenzoic acid]", "values": [{"measurement": "tumor volume versus other groups", "setting": "[1]", "value": "significantly smaller"}]}, {"smiles": "O=C(COCC(=O)N1CCN(C(c2ccccc2)c2ccccc2)CC1)Nc1ccc(Cl)cc1C(=O)[O-].[Na+]", "note": "[Example 30 (compound group 2), 2-(2-(2-(4-benzhydrylpiperazin-1-yl)-2-oxoethoxy)acetamido)-5-chlorobenzoic acid sodium salt]", "values": [{"measurement": "absolute number of human hematopoietic cells in the bone marrow, versus control group", "setting": "[2]; control PBS", "value": "3 to 10", "unit": "times higher"}, {"measurement": "chimerism of human hematopoietic cells (CD45+) in the bone marrow, versus control group", "setting": "[2]; control PBS", "value": "2 to 9", "unit": "times higher"}, {"measurement": "VEGF in the plasma", "setting": "[2]; versus control", "value": "increased"}, {"measurement": "cKitL in the plasma", "setting": "[2]; versus control", "value": "increased"}, {"measurement": "proportion of CD34+ cell (human HSC) contained in human hematopoietic cells", "setting": "[2]; versus control", "value": "increased"}, {"measurement": "bone-marrow mononucleic cells", "setting": "[3]; tPA-KO-mice", "value": "did not exhibit an increase"}, {"measurement": "frequency or absolute number of Lin-SLAM cells and of LSK-CD34 negative cells", "setting": "[3]; tPA-KO-mice", "value": "an increase was also not observed"}, {"measurement": "bone-marrow mononucleic cells", "setting": "[3]; wild-type mice", "value": "increase"}, {"measurement": "level of cKitL in plasma", "setting": "[4]; [7]", "value": "highest level"}, {"measurement": "level of plasmin in plasma", "setting": "[4]; [7]", "value": "highest level"}, {"measurement": "level of total MMP-9 in plasma", "setting": "[4]; [7]", "value": "highest level"}, {"measurement": "level of active tPA in plasma", "setting": "[4]; 7 days after transplantation, among control, tPA and compound a groups", "value": "highest level"}, {"measurement": "expression of active PAI-1 in the plasma", "setting": "[4]; compound a or recombinant tPA 100 mg/kg, 5 consecutive days, 2 and 7 days after bone-marrow transplantation", "value": "did not exhibit an expression of active PAI-1"}, {"measurement": "survival rate on day 28 from bone-marrow transplantation", "setting": "[4]; lethal radiation 9Gy, 100 mg/kg, 5 consecutive days, n=15, control group 20%", "value": 70, "unit": "%"}, {"measurement": "platelet count in the peripheral blood", "setting": "[4]; [8]", "value": "significantly increased"}, {"measurement": "white blood cell count in the peripheral blood", "setting": "[4]; [8]", "value": "significantly increased"}, {"measurement": "survival rate on day 50", "setting": "[5]; imatinib 150 mg/kg/day (day 10-16) + compound a 100 mg/kg/day (day 10-14) via gavage", "value": 60, "unit": "%"}, {"measurement": "frequency of 32Dp210-GFP cells in bone-marrow mononucleic cells", "setting": "[5]; [9]", "value": "about 1.7%"}, {"measurement": "frequency of CML cells (32Dp210-GFP cells) in the spleen", "setting": "[5]; [9]", "value": "about 6.6%"}, {"measurement": "median survival period", "setting": "[5]; imatinib 150 mg/kg/day + compound a 100 mg/kg/day via gavage, placebo 14 days", "value": 40, "unit": "days"}, {"measurement": "proportion of cells that were induced apoptosis (Annexin V)", "setting": "[6]; compared with control group", "value": "decrease"}, {"measurement": "cells in the S phase (BrdU incorporated into LSK cells)", "setting": "[6]; control group 18.1%", "value": 21.4, "unit": "%"}, {"measurement": "Ki-67 positive, cells classified into the LSK fraction taken as 100%", "setting": "[6]; control group 43.3%", "value": 63.9, "unit": "%"}, {"measurement": "cell count of cells at the S-G2-M phase (Ki-67) in bone-marrow mononucleic cells", "setting": "[6]; control group 44.2%", "value": 64.2, "unit": "%"}, {"measurement": "cell count of cells at the G0/G1 phase (Ki-67) in bone-marrow mononucleic cells", "setting": "[6]; control group 55.8%", "value": 35.8, "unit": "%"}]}]}
